Test results as given in patent EP3981391B1, “ORAL PREPARATION HAVING IMPROVED DISSOLUTION RATE AND DISINTEGRATION PROPERTIES FOR NATURAL SUBSTANCE EXTRACT” (Green Cross WellBeing Corporation, priority 2019, dated 2020).

Assay: Solubility of processed ginseng extract (ginsenosides Rg3 and Rh2 by HPLC) in solvents and dissolution media
Assay type: physicochemical
Protocol: Processed ginseng extracts were used as natural product extracts of the present invention, and the processed ginseng extracts were prepared by the methods disclosed in Korean Patent Nos. 1595426 and 1966117. Among these, a processed ginseng extract containing 13 wt% of ginsenoside Rg3 and 7 wt% of ginsenoside Rh2 was used.
To investigate the solubility of the processed ginseng extract of the present invention, isopropanol, ethanol, water, and a pH 1.2 buffer, a pH 4.0 buffer, and a pH 6.8 buffer, which are dissolution media disclosed in the Korean Pharmacopoeia, were used as solvents. After 500 mg of the processed ginseng extract was added to 2 g of each solvent, stirring was performed at 50 rpm and 37°C for 18 hours, thereby obtaining each sample. Thereafter, a filtrate obtained by filtration of each sample through a 0.45-µm polyvinylidene fluoride (PVDF) syringe filter was analyzed by high performance liquid chromatography (HPLC) to investigate the solubility of ginsenosides Rg3 and Rh2 contained in the processed ginseng extract. The results are shown in Table 1 below. • HPLC Conditions were as follows: • Column: C18, 1.8 µm, 2.1x50 mm • Column Temperature: 50°C • Detector: UV 203 nm • Flow rate: 0.6 ml/min • Amount of injection: 2 µl • Run time: About 14 min • Mobile phase: distilled water: acetonitrile =57:43 (v/v) TABLE 1

[1] = Ethanol, 500 mg processed ginseng extract in 2 g solvent, 50 rpm, 37°C, 18 hours
[2] = Isopropanol, 500 mg processed ginseng extract in 2 g solvent, 50 rpm, 37°C, 18 hours
[3] = Water, 500 mg processed ginseng extract in 2 g solvent, 50 rpm, 37°C, 18 hours
[4] = pH 1.2 buffer, 500 mg processed ginseng extract in 2 g solvent, 50 rpm, 37°C, 18 hours
[5] = pH 4.0 buffer, 500 mg processed ginseng extract in 2 g solvent, 50 rpm, 37°C, 18 hours
[6] = pH 6.8 buffer, 500 mg processed ginseng extract in 2 g solvent, 50 rpm, 37°C, 18 hours
[7] = in water, a pH 1.2 buffer, or a pH 4.0 buffer

| SMILES | solubility [1] | solubility [2] | solubility [3] | solubility [4] | solubility [5] | solubility [6] | solubility [7] |
| --- | --- | --- | --- | --- | --- | --- | --- |
| CC(C)=CCC[C@](C)(O)[C@H]1CC[C@]2(C)[C@@H]1[C@H](O)C[C@@H]1[C@@]3(C)CC[C@H](O[C@@H]4O[C@H](CO)[C@@H](O)[C@H](O)[C@H]4O[C@@H]4O[C@H](CO)[C@@H](O)[C@H](O)[C@H]4O)C(C)(C)[C@@H]3CC[C@]12C [Ginsenoside Rg3 R-form, Ginsenoside Rg3] | 5.45 mg/g | 4.72 mg/g | 0.05 mg/g | 0.01 mg/g | 0.05 mg/g | 0.31 mg/g | – |
| CC(C)=CCC[C@](C)(O)[C@H]1CC[C@]2(C)[C@@H]1[C@H](O)C[C@@H]1[C@@]3(C)CC[C@H](O[C@@H]4O[C@H](CO)[C@@H](O)[C@H](O)[C@H]4O[C@@H]4O[C@H](CO)[C@@H](O)[C@H](O)[C@H]4O)C(C)(C)[C@@H]3CC[C@]12C [Ginsenoside Rg3 S-form, Ginsenoside Rg3] | 7.52 mg/g | 7.43 mg/g | 0.21 mg/g | 0.01 mg/g | 0.28 mg/g | 1.23 mg/g | – |
| CC(C)=CCC[C@](C)(O)[C@H]1CC[C@]2(C)[C@@H]1[C@H](O)C[C@@H]1[C@@]3(C)CC[C@H](O[C@@H]4O[C@H](CO)[C@@H](O)[C@H](O)[C@H]4O)C(C)(C)[C@@H]3CC[C@]12C [Ginsenoside Rh2 R-form, Ginsenoside Rh2] | 2.55 mg/g | 2.47 mg/g | 0.00 mg/g | 0.00 mg/g | 0.00 mg/g | 0.09 mg/g | – |
| CC(C)=CCC[C@](C)(O)[C@H]1CC[C@]2(C)[C@@H]1[C@H](O)C[C@@H]1[C@@]3(C)CC[C@H](O[C@@H]4O[C@H](CO)[C@@H](O)[C@H](O)[C@H]4O)C(C)(C)[C@@H]3CC[C@]12C [Ginsenoside Rh2 S-form, Ginsenoside Rh2] | 3.96 mg/g | 3.99 mg/g | 0.10 mg/g | 0.00 mg/g | 0.13 mg/g | 0.60 mg/g | – |
| CC(C)=CCC[C@](C)(O)[C@H]1CC[C@]2(C)[C@@H]1[C@H](O)C[C@@H]1[C@@]3(C)CC[C@H](O[C@@H]4O[C@H](CO)[C@@H](O)[C@H](O)[C@H]4O[C@@H]4O[C@H](CO)[C@@H](O)[C@H](O)[C@H]4O)C(C)(C)[C@@H]3CC[C@]12C [ginsenoside Rg3] | – | – | – | – | – | – | less than 0.3 mg/g |
| CC(C)=CCC[C@](C)(O)[C@H]1CC[C@]2(C)[C@@H]1[C@H](O)C[C@@H]1[C@@]3(C)CC[C@H](O[C@@H]4O[C@H](CO)[C@@H](O)[C@H](O)[C@H]4O)C(C)(C)[C@@H]3CC[C@]12C [ginsenoside Rh2] | – | – | – | – | – | – | less than 0.3 mg/g |
